Bridge positions count the residues as written; N and C are the ends. Square brackets hold non-standard residues; d marks the D form. Peptide text beside a SMILES is read from it. * marks the point of attachment. ξ: configuration not given here. Bip = N[C@@H](Cc1ccc(-c2ccccc2)cc1)C(=O)O; Phe(3-Me) = Cc1cccc(C[C@H](N)C(=O)O)c1; Val(3-OH) = CC(C)(O)[C@H](N)C(=O)O; hArg = N=C(N)NCCCC[C@H](N)C(=O)O; Cha = N[C@@H](CC1CCCCC1)C(=O)O; Cit = NC(=O)NCCC[C@H](N)C(=O)O; Thr(3ξ) = CC(O)[C@H](N)C(=O)O; Tle = CC(C)(C)[C@H](N)C(=O)O; 12Ado = NCCCCCCCCCCCC(=O)O; Carboxymethyl = O=C(O)C*; Orn = NCCC[C@H](N)C(=O)O; Aun = NCCCCCCCCCCC(=O)O; Dab = NCC[C@H](N)C(=O)O; Dap = NC[C@H](N)C(=O)O; Piv = CC(C)(C)C(=O)*
Molecular target: T1, PD-1/PD-L1 interaction (PE-labeled human PD-L1-Ig binding to Jurkat cell line over-expressing human PD-1) (Homo sapiens, UniProt Q15116)
T1 construct: expressed in transfected cells; host or cells: Jurkat
T1 sequence (Q15116 25-288): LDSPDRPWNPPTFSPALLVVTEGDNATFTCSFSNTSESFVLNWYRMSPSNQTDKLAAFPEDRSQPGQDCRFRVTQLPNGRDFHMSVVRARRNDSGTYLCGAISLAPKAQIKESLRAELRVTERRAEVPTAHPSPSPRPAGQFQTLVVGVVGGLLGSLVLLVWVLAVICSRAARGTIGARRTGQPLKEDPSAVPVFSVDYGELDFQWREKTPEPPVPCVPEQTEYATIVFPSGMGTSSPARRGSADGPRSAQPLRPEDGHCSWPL
Assay: Jurkat-PD-1 Cell Binding High-Content Screening Assay (CBA)
Assay type: cell-based
Settings: Jurkat cell line over-expressing human PD-1; PE-labeled PD-L1-Ig 20 nM final; read-out: Jurkat hPD1-PDL1 IC50
Method in brief: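 Jurkat cells stably over-expressing human PD-1 were seeded in DMEM with 10% fetal calf serum and pre-incubated with compound for 2 h at 37° C. PE-labeled human PD-L1-Ig was then added at 20 nM final for 1 hour, after which cells were fixed with paraformaldehyde, Hoechst-stained and imaged by high-content microscopy.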

| SMILES | IC50 [nM] |
| --- | --- |
| Cc1cccc(C[C@@H]2NC(=O)[C@H](CC(=O)O)NC(=O)[C@H](Cc3ccc(OCC(=O)O)cc3)NC(=O)[C@H](CCCNC(=N)N)NC(=O)CSC[C@@H](C(=O)N[C@@H](CCN)C(=O)NCCCCCCCCCCC(=O)O)NC(=O)[C@H](CO)NC(=O)[C@H](C(C)O)NC(=O)[C@H](CC3CCCCC3)NC(=O)[C@H](CCN)NC(=O)[C@@H](CC(C)C)NC(=O)[C@H](CCCN)NC(=O)[C@H](Cc3ccc(OCC(=O)O)cc3)NC(=O)[C@H](Cc3ccc(-c4ccccc4)cc3)NC(=O)[C@H](Cc3ccc(OCC(=O)O)cc3)NC2=O)c1 (stereo partly drawn) [Compound 3530] ({CH2CO}-RY(Carboxymethyl)D[Phe(3-Me)]Y(Carboxymethyl)[Bip]Y(Carboxymethyl)[Orn][dL][Dab][Cha][Thr(3ξ)]SC[Dab][Aun]-OH; thioether N-14) | 7.3 |
| Cc1cccc(C[C@@H]2NC(=O)[C@H](CC(=O)O)NC(=O)[C@H](Cc3ccc(OCC(=O)O)cc3)NC(=O)[C@H](CCCNC(=N)N)NC(=O)CSC[C@@H](C(=O)N[C@@H](CCN)C(=O)NCCCCCCCCCCC(=O)O)NC(=O)[C@H](CO)NC(=O)[C@H](C(C)(C)C)NC(=O)[C@H](CC3CCCCC3)NC(=O)[C@H](CCN)NC(=O)[C@@H](CC(C)C)NC(=O)[C@H](CCCN)NC(=O)[C@H](Cc3ccc(OCC(=O)O)cc3)NC(=O)[C@H](Cc3ccc(-c4ccccc4)cc3)NC(=O)[C@H](Cc3c[nH]c4ccccc34)NC2=O)c1 [Compound 3531] ({CH2CO}-RY(Carboxymethyl)D[Phe(3-Me)]W[Bip]Y(Carboxymethyl)[Orn][dL][Dab][Cha][Tle]SC[Dab][Aun]-OH; thioether N-14) | 48.6 |
| Cc1cccc(C[C@@H]2NC(=O)[C@H](CC(=O)O)NC(=O)[C@H](Cc3ccc(OCC(=O)O)cc3)NC(=O)[C@H](CCCNC(=N)N)NC(=O)CSC[C@@H](C(=O)N[C@@H](CCN)C(=O)NCCCCCCCCCCC(=O)O)NC(=O)[C@H](CCC(N)=O)NC(=O)[C@H](C(C)(C)C)NC(=O)[C@H](CC3CCCCC3)NC(=O)[C@H](CCN)NC(=O)[C@@H](CC(C)C)NC(=O)[C@H](CCCN)NC(=O)[C@H](Cc3ccc(OCC(=O)O)cc3)NC(=O)[C@H](Cc3ccc(-c4ccccc4)cc3)NC(=O)[C@H](Cc3ccc(OCC(=O)O)cc3)NC2=O)c1 [Compound 3532] ({CH2CO}-RY(Carboxymethyl)D[Phe(3-Me)]Y(Carboxymethyl)[Bip]Y(Carboxymethyl)[Orn][dL][Dab][Cha][Tle]QC[Dab][Aun]-OH; thioether N-14) | 7.5 |
| Cc1cccc(C[C@@H]2NC(=O)[C@H](CC(=O)O)NC(=O)[C@H](Cc3ccc(OCC(=O)O)cc3)NC(=O)[C@H](CCCNC(=N)N)NC(=O)CSC[C@@H](C(=O)N[C@@H](CCN)C(=O)NCCCCCCCCCCC(=O)O)NC(=O)[C@H](CCC(N)=O)NC(=O)[C@H](C(C)(C)O)NC(=O)[C@H](CC3CCCCC3)NC(=O)[C@H](CCN)NC(=O)[C@@H](CC(C)C)NC(=O)[C@H](CCCN)NC(=O)[C@H](Cc3ccc(OCC(=O)O)cc3)NC(=O)[C@H](Cc3ccc(-c4ccccc4)cc3)NC(=O)[C@H](Cc3ccc(OCC(=O)O)cc3)NC2=O)c1 [Compound 3533] ({CH2CO}-RY(Carboxymethyl)D[Phe(3-Me)]Y(Carboxymethyl)[Bip]Y(Carboxymethyl)[Orn][dL][Dab][Cha][Val(3-OH)]QC[Dab][Aun]-OH; thioether N-14) | 5.1 |
| Cc1cccc(C[C@@H]2NC(=O)[C@H](CC(=O)O)NC(=O)[C@H](Cc3ccc(OCC(=O)O)cc3)NC(=O)[C@H](CCCNC(=N)N)NC(=O)CSC[C@@H](C(=O)N[C@@H](CCCCN)C(=O)N[C@@H](CO)C(=O)NCCCCCCCCCCCC(=O)O)NC(=O)[C@H](CN)NC(=O)[C@H](C(C)C)NC(=O)[C@H](CC3CCCCC3)NC(=O)[C@H](CCN)NC(=O)[C@@H](CC(C)C)NC(=O)[C@H](CCCN)NC(=O)[C@H](CCCNC(N)=O)NC(=O)[C@H](Cc3ccc(-c4ccccc4)cc3)NC(=O)[C@H](C(C)C)NC2=O)c1 [Compound 3534] ({CH2CO}-RY(Carboxymethyl)D[Phe(3-Me)]V[Bip][Cit][Orn][dL][Dab][Cha]V[Dap]CKS[12Ado]-OH; thioether N-14) | 22.6 |
| Cc1cccc(C[C@@H]2NC(=O)[C@H](CC(=O)O)NC(=O)[C@H](Cc3ccc(OCC(=O)O)cc3)NC(=O)[C@H](CCCNC(=N)N)NC(=O)CSC[C@@H](C(=O)N[C@@H](CCCCN)C(=O)N[C@@H](CO)C(=O)NCCCCCCCCCCCC(=O)O)NC(=O)[C@H](CN)NC(=O)[C@H](C(C)C)NC(=O)[C@H](CC3CCCCC3)NC(=O)[C@H](CCN)NC(=O)[C@@H](CC(C)C)NC(=O)[C@H](CCCN)NC(=O)[C@H](C(C)C)NC(=O)[C@H](Cc3ccc(-c4ccccc4)cc3)NC(=O)[C@H](C(C)C)NC2=O)c1 [Compound 3535] ({CH2CO}-RY(Carboxymethyl)D[Phe(3-Me)]V[Bip]V[Orn][dL][Dab][Cha]V[Dap]CKS[12Ado]-OH; thioether N-14) | 13.4 |
| Cc1cccc(C[C@@H]2NC(=O)[C@H](CC(=O)O)NC(=O)[C@H](Cc3ccc(OCC(=O)O)cc3)NC(=O)[C@H](CCCCNC(=N)N)NC(=O)CSC[C@@H](C(=O)N[C@@H](CCN)C(=O)N[C@@H](CO)C(=O)NCCCCCCCCCCCC(=O)O)NC(=O)[C@H](C(C)O)NC(=O)[C@H](C(C)O)NC(=O)[C@H](CC3CCCCC3)NC(=O)[C@H](CCN)NC(=O)[C@@H](CC(C)C)NC(=O)[C@H](CCCN)NC(=O)[C@H](CCCNC(=N)N)NC(=O)[C@H](Cc3ccc(-c4ccccc4)cc3)NC(=O)[C@H](C(C)C)NC2=O)c1 (stereo partly drawn) [Compound 3537] ({CH2CO}-[hArg]Y(Carboxymethyl)D[Phe(3-Me)]V[Bip]R[Orn][dL][Dab][Cha][Thr(3ξ)][Thr(3ξ)]C[Dab]S[12Ado]-OH; thioether N-14) | 29.9 |
| CC(=O)NCCCC[C@@H]1NC(=O)CSC[C@@H](C(=O)N[C@@H](CCN)C(=O)NCCCCCCCCCCC(=O)O)NC(=O)[C@H](C(C)O)NC(=O)[C@H](C(C)C)NC(=O)[C@H](CC2CCCCC2)NC(=O)[C@H](CCN)NC(=O)[C@@H](CC(C)C)NC(=O)[C@H](CCCN)NC(=O)[C@H](CCCNC(N)=O)NC(=O)[C@H](Cc2ccc(-c3ccccc3)cc2)NC(=O)[C@H](C(C)C)NC(=O)[C@H](Cc2cccc(C)c2)NC(=O)[C@H](CC(=O)O)NC(=O)[C@H](Cc2ccc(OCC(=O)O)cc2)NC1=O (stereo partly drawn) [Compound 3538] ({CH2CO}-K(Ac)Y(Carboxymethyl)D[Phe(3-Me)]V[Bip][Cit][Orn][dL][Dab][Cha]V[Thr(3ξ)]C[Dab][Aun]-OH; thioether N-14) | 26.3 |
| Cc1cccc(C[C@@H]2NC(=O)[C@H](CC(=O)O)NC(=O)[C@H](Cc3ccc(OCC(=O)O)cc3)NC(=O)[C@H](CCCCNC(=O)C(C)(C)C)NC(=O)CSC[C@@H](C(=O)N[C@@H](CCN)C(=O)NCCCCCCCCCCC(=O)O)NC(=O)[C@H](C(C)O)NC(=O)[C@H](C(C)C)NC(=O)[C@H](CC3CCCCC3)NC(=O)[C@H](CCN)NC(=O)[C@@H](CC(C)C)NC(=O)[C@H](CCCN)NC(=O)[C@H](CCCNC(N)=O)NC(=O)[C@H](Cc3ccc(-c4ccccc4)cc3)NC(=O)[C@H](C(C)C)NC2=O)c1 (stereo partly drawn) [Compound 3539] ({CH2CO}-K(Piv)Y(Carboxymethyl)D[Phe(3-Me)]V[Bip][Cit][Orn][dL][Dab][Cha]V[Thr(3ξ)]C[Dab][Aun]-OH; thioether N-14) | 39.9 |
| CC(=O)NCCCC[C@@H]1NC(=O)[C@H](Cc2ccc(-c3ccccc3)cc2)NC(=O)[C@H](Cc2ccc(O)cc2)NC(=O)[C@H](Cc2cccc(C)c2)NC(=O)[C@H](CC(=O)O)NC(=O)[C@H](Cc2ccc(OCC(=O)O)cc2)NC(=O)[C@H](CCCNC(=N)N)NC(=O)CSC[C@@H](C(=O)N[C@H](CC(N)=O)C(=O)NCCCCCCCCCCC(=O)O)NC(=O)[C@H](C(C)O)NC(=O)[C@H](C(C)C)NC(=O)[C@H](CC2CCCCC2)NC(=O)[C@H](CCN)NC(=O)[C@@H](CC(C)C)NC(=O)[C@H](CCCNC(N)=O)NC1=O (stereo partly drawn) [Compound 3541] ({CH2CO}-RY(Carboxymethyl)D[Phe(3-Me)]Y[Bip]K(Ac)[Cit][dL][Dab][Cha]V[Thr(3ξ)]C[dN][Aun]-OH; thioether N-14) | 10 |
| Cc1cccc(C[C@@H]2NC(=O)[C@H](CC(=O)O)NC(=O)[C@H](Cc3ccc(OCC(=O)O)cc3)NC(=O)[C@H](CCCNC(=N)N)NC(=O)CSC[C@@H](C(=O)N[C@H](CC(N)=O)C(=O)NCCCCCCCCCCC(=O)O)NC(=O)[C@H](C(C)O)NC(=O)[C@H](C(C)C)NC(=O)[C@H](CC3CCCCC3)NC(=O)[C@H](CCN)NC(=O)[C@@H](CC(C)C)NC(=O)[C@H](CCCNC(=N)N)NC(=O)[C@H](CCCCNC(=O)C(C)(C)C)NC(=O)[C@H](Cc3ccc(-c4ccccc4)cc3)NC(=O)[C@H](Cc3ccc(O)cc3)NC2=O)c1 (stereo partly drawn) [Compound 3542] ({CH2CO}-RY(Carboxymethyl)D[Phe(3-Me)]Y[Bip]K(Piv)R[dL][Dab][Cha]V[Thr(3ξ)]C[dN][Aun]-OH; thioether N-14) | 38.2 |
| CC(=O)NCCCC[C@@H]1NC(=O)[C@H](Cc2ccc(-c3ccccc3)cc2)NC(=O)[C@H](Cc2ccc(O)cc2)NC(=O)[C@H](Cc2cccc(C)c2)NC(=O)[C@H](CC(=O)O)NC(=O)[C@H](Cc2ccc(OCC(=O)O)cc2)NC(=O)[C@H](CCCNC(=N)N)NC(=O)CSC[C@@H](C(=O)N[C@H](CC(N)=O)C(=O)NCCCCCCCCCCC(=O)O)NC(=O)[C@H](C(C)O)NC(=O)[C@H](C(C)C)NC(=O)[C@H](CC2CCCCC2)NC(=O)[C@H](CCN)NC(=O)[C@@H](CC(C)C)NC(=O)[C@H](CCC(N)=O)NC1=O (stereo partly drawn) [Compound 3543] ({CH2CO}-RY(Carboxymethyl)D[Phe(3-Me)]Y[Bip]K(Ac)Q[dL][Dab][Cha]V[Thr(3ξ)]C[dN][Aun]-OH; thioether N-14) | 13.3 |

Source: US20260022142A1, “MACROCYCLIC IMMUNOMODULATORS” (Bristol-Myers Squibb Company, priority 2022, published 2026)
